Laboratory results reported in the supplement of paper PMC11061612.

Tests used:
Carboplatin = compound: C1CC(C1)(C(=O)[O-])C(=O)[O-].N.N.[Pt+2] [Carboplatin]; conditions: max 10 µM
Procedure, shortened: (§1)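 Cancer cell lines were seeded into 1536-well plates in 7.5 μl medium (DMEM/F12 or RPMI, 10% FBS), held 24 hours at 37°C and 5% CO2, and dosed for 72 hours with final DMSO typically 0.2%. Luminescence from CellTiter-Glo 2.0, scaled between blank-well and DMSO-well means, served as viability. The single-agent IC50 was obtained from dose-response fits with a non-linear mixed effects model, each fit being a two-parameter logistic curve.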

AZD5363 = compound: C1CN(CCC1(C(=O)N[C@@H](CCO)C2=CC=C(C=C2)Cl)N)C3=NC=NC4=C3C=CN4 [AZD5363]; conditions: max 10 µM
Procedure, shortened: as §1

AZD1775 = compound: C=CCn1c(=O)c2cnc(Nc3ccc(N4CCN(C)CC4)cc3)nc2n1-c1cccc(C(C)(C)O)n1 [AZD1775]; conditions: max 3 µM
Procedure, shortened: as §1

Trametinib = compound: CC(=O)Nc1cccc(-n2c(=O)n(C3CC3)c(=O)c3c(Nc4ccc(I)cc4F)n(C)c(=O)c(C)c32)c1 [Trametinib]; conditions: max 1 µM
Procedure, shortened: as §1

Paclitaxel = compound: CC(=O)O[C@H]1C(=O)[C@@]2(C)[C@H]([C@H](OC(=O)c3ccccc3)[C@]3(O)C[C@H](OC(=O)[C@H](O)[C@@H](NC(=O)c4ccccc4)c4ccccc4)C(C)=C1C3(C)C)[C@]1(OC(C)=O)CO[C@@H]1C[C@@H]2O [Paclitaxel]; conditions: max 3 µM
Procedure, shortened: as §1

Palbociclib = compound: CC(=O)c1c(C)c2cnc(Nc3ccc(N4CCNCC4)cn3)nc2n(C2CCCC2)c1=O [Palbociclib]; conditions: max 10 µM
Procedure, shortened: as §1

AZD1390 = compound: CC(C)n1c(=O)n(C)c2cnc3cc(F)c(-c4ccc(OCCCN5CCCCC5)nc4)cc3c21 [AZD1390]; conditions: max 0.3 µM
Procedure, shortened: as §1

Venetoclax = compound: CC1(C)CCC(CN2CCN(c3ccc(C(=O)NS(=O)(=O)c4ccc(NCC5CCOCC5)c([N+](=O)[O-])c4)c(Oc4cnc5[nH]ccc5c4)c3)CC2)=C(c2ccc(Cl)cc2)C1 [Venetoclax]; conditions: max 1 µM
Procedure, shortened: as §1

Dasatinib = compound: CC1=C(C(=CC=C1)Cl)NC(=O)C2=CN=C(S2)NC3=CC(=NC(=N3)C)N4CCN(CC4)CCO [Dasatinib]; conditions: max 2 µM
Procedure, shortened: as §1

SG3199 = compound: CC1=CN2[C@@H](C1)C=NC3=CC(=C(C=C3C2=O)OC)OCCCCCOC4=C(C=C5C(=C4)N=C[C@@H]6CC(=CN6C5=O)C)OC [SG3199]; conditions: max 0.001 µM
Procedure, shortened: as §1

AZD2811 = compound: CCN(CCO)CCCOc1ccc2c(Nc3cc(CC(=O)Nc4cccc(F)c4)[nH]n3)ncnc2c1 [AZD2811]; conditions: max 1 µM
Procedure, shortened: as §1

SN-38 = compound: CCc1c2c(nc3ccc(O)cc13)-c1cc3c(c(=O)n1C2)COC(=O)[C@]3(O)CC [SN-38]; conditions: max 0.3 µM
Procedure, shortened: as §1

AZD0156 = compound: CN(C)CCCOc1ccc(-c2ccc3ncc4c(c3c2)n(C2CCOCC2)c(=O)n4C)cn1 [AZD0156]; conditions: max 3 µM
Procedure, shortened: as §1

AZD4320 = compound: CN(CC[C@H](CSC1=CC=CC=C1)NC2=C(C=C(C=C2)S(=O)(=O)NC(=O)C3=CC=C(C=C3)N4CCC(CC4)[C@H](C5=CC=CC=C5C6=CC=C(C=C6)Cl)O)S(=O)(=O)C(F)(F)F)CCO [AZD4320]; conditions: max 1 µM
Procedure, shortened: as §1

Alisertib = compound: COc1cc(Nc2ncc3c(n2)-c2ccc(Cl)cc2C(c2c(F)cccc2OC)=NC3)ccc1C(=O)O [Alisertib]; conditions: max 10 µM
Procedure, shortened: as §1

Etoposide = compound: COc1cc([C@@H]2c3cc4c(cc3[C@@H](O[C@@H]3O[C@@H]5CO[C@@H](C)O[C@H]5[C@H](O)[C@H]3O)[C@H]3COC(=O)[C@H]23)OCO4)cc(OC)c1O [Etoposide]; conditions: max 10 µM
Procedure, shortened: as §1

Gefitinib = compound: COc1cc2ncnc(Nc3ccc(F)c(Cl)c3)c2cc1OCCCN1CCOCC1 [Gefitinib]; conditions: max 10 µM
Procedure, shortened: as §1

Prexasertib = compound: COc1cccc(OCCCN)c1-c1cc(Nc2cnc(C#N)cn2)n[nH]1 [Prexasertib]; conditions: max 1 µM
Procedure, shortened: as §1

Doxorubicin = compound: COc1cccc2c1C(=O)c1c(O)c3c(c(O)c1C2=O)C[C@@](O)(C(=O)CO)C[C@@H]3O[C@H]1C[C@H](N)[C@H](O)[C@H](C)O1 [Doxorubicin]; conditions: max 1 µM
Procedure, shortened: as §1

AZD5153 = compound: COc1nnc2ccc(N3CCC(c4ccc(OCCN5CCN(C)C(=O)[C@H]5C)cc4)CC3)nn12 [AZD5153]; conditions: max 1 µM
Procedure, shortened: as §1

Lapatinib = compound: CS(=O)(=O)CCNCc1ccc(-c2ccc3ncnc(Nc4ccc(OCc5cccc(F)c5)c(Cl)c4)c3c2)o1 [Lapatinib]; conditions: max 10 µM
Procedure, shortened: as §1

AZD8186 = compound: C[C@@H](Nc1cc(F)cc(F)c1)c1cc(C(=O)N(C)C)cc2c(=O)cc(N3CCOCC3)oc12 [AZD8186]; conditions: max 10 µM
Procedure, shortened: as §1

Crizotinib = compound: C[C@@H](Oc1cc(-c2cnn(C3CCNCC3)c2)cnc1N)c1c(Cl)ccc(F)c1Cl [Crizotinib]; conditions: max 10 µM
Procedure, shortened: as §1

Savolitinib = compound: C[C@@H](c1ccc2nccn2c1)n1nnc2ncc(-c3cnn(C)c3)nc21 [Savolitinib]; conditions: max 1 µM
Procedure, shortened: as §1

AZD6738 = compound: C[C@@H]1COCCN1C2=NC(=NC(=C2)C3(CC3)[S@](=N)(=O)C)C4=C5C=CNC5=NC=C4 [AZD6738]; conditions: max 10 µM
Procedure, shortened: as §1

AZD5991 = compound: Cc1c2c(nn1C)CSCc1cc(n(C)n1)CSc1cc(c3ccccc3c1)OCCCc1c(C(=O)O)n(C)c3c-2c(Cl)ccc13 [AZD5991]; conditions: max 1 µM
Procedure, shortened: as §1

AZD7648 = compound: Cc1cc2ncnn2cc1Nc1ncc2c(n1)n(C1CCOCC1)c(=O)n2C [AZD7648]; conditions: max 10 µM
Procedure, shortened: as §1

Taselisib = compound: Cc1nc(-c2cn3c(n2)-c2ccc(-c4cnn(C(C)(C)C(N)=O)c4)cc2OCC3)n(C(C)C)n1 [Taselisib]; conditions: max 10 µM
Procedure, shortened: as §1

Selumetinib = compound: Cn1cnc2c(F)c(Nc3ccc(Br)cc3Cl)c(C(=O)NOCCO)cc21 [Selumetinib]; conditions: max 10 µM
Procedure, shortened: as §1

SRA737 = compound: N#Cc1cnc(Nc2cc(NC[C@H]3CNCCO3)c(C(F)(F)F)cn2)cn1 [SRA737]; conditions: max 10 µM
Procedure, shortened: as §1

MK-2206 = compound: NC1(c2ccc(-c3nc4ccn5c(=O)[nH]nc5c4cc3-c3ccccc3)cc2)CCC1 [MK-2206]; conditions: max 10 µM
Procedure, shortened: as §1

Gemcitabine = compound: Nc1ccn([C@@H]2O[C@H](CO)[C@@H](O)C2(F)F)c(=O)n1 [Gemcitabine]; conditions: max 0.3 µM
Procedure, shortened: as §1

[1] = compound: O=C(Nc1ccc2[nH]nc(-c3ccncc3)c2c1)[C@@H]1CCN(CC(=O)N2CCN(c3ccc(-c4ncccn4)cc3)CC2)C1; conditions: max 5 µM
Procedure, shortened: as §1

Olaparib = compound: O=C(c1cc(Cc2n[nH]c(=O)c3ccccc23)ccc1F)N1CCN(C(=O)C2CC2)CC1 [Olaparib]; conditions: max 10 µM
Procedure, shortened: as §1

5-Fluorouracil = compound: O=c1[nH]cc(F)c(=O)[nH]1 [5-Fluorouracil]; conditions: max 20 µM
Procedure, shortened: as §1

Row | Cell Line | IC50, cell viability 72 h (Carboplatin) | IC50, cell viability 72 h (AZD5363) | IC50, cell viability 72 h (AZD1775) | IC50, cell viability 72 h (Trametinib) | IC50, cell viability 72 h (Paclitaxel) | IC50, cell viability 72 h (Palbociclib) | IC50, cell viability 72 h (AZD1390) | IC50, cell viability 72 h (Venetoclax) | IC50, cell viability 72 h (Dasatinib) | IC50, cell viability 72 h (SG3199) | IC50, cell viability 72 h (AZD2811) | IC50, cell viability 72 h (SN-38) | IC50, cell viability 72 h (AZD0156) | IC50, cell viability 72 h (AZD4320) | IC50, cell viability 72 h (Alisertib) | IC50, cell viability 72 h (Etoposide) | IC50, cell viability 72 h (Gefitinib) | IC50, cell viability 72 h (Prexasertib) | IC50, cell viability 72 h (Doxorubicin) | IC50, cell viability 72 h (AZD5153) | IC50, cell viability 72 h (Lapatinib) | IC50, cell viability 72 h (AZD8186) | IC50, cell viability 72 h (Crizotinib) | IC50, cell viability 72 h (Savolitinib) | IC50, cell viability 72 h (AZD6738) | IC50, cell viability 72 h (AZD5991) | IC50, cell viability 72 h (AZD7648) | IC50, cell viability 72 h (Taselisib) | IC50, cell viability 72 h (Selumetinib) | IC50, cell viability 72 h (SRA737) | IC50, cell viability 72 h (MK-2206) | IC50, cell viability 72 h (Gemcitabine) | IC50, cell viability 72 h [1] | IC50, cell viability 72 h (Olaparib) | IC50, cell viability 72 h (5-Fluorouracil)
1 | SW948 (Colorectal Carcinoma) | > 10 µM | 6.29 µM | 1.39 µM | 0.0352 µM | 0.0299 µM | > 10 µM | > 0.3 µM | > 1 µM | > 2 µM | > 0.001 µM | > 1 µM | > 0.3 µM | > 3 µM | > 1 µM | 0.0444 µM | > 10 µM | > 10 µM | 0.136 µM | > 1 µM | 0.918 µM | > 10 µM | > 10 µM | 5.44 µM | > 1 µM | > 10 µM | > 1 µM | > 10 µM | 0.343 µM | 1.08 µM | > 10 µM | > 10 µM | > 0.3 µM | 2.47 µM | > 10 µM | > 20 µM
2 | DOK (Oral Cavity Carcinoma) | > 10 µM | 9.61 µM | 1.26 µM | 0.328 µM | 0.00513 µM | > 10 µM | > 0.3 µM | > 1 µM | 0.165 µM | > 0.001 µM | > 1 µM | 0.169 µM | > 3 µM | > 1 µM | 4.51 µM | > 10 µM | > 10 µM | > 1 µM | > 1 µM | 0.652 µM | 5.76 µM | > 10 µM | > 10 µM | > 1 µM | > 10 µM | > 1 µM | > 10 µM | 0.253 µM | 3.66 µM | > 10 µM | > 10 µM | > 0.3 µM | 0.633 µM | > 10 µM | > 20 µM
3 | SK-LMS-1 (Other Solid Carcinomas) | > 10 µM | > 10 µM | 1.63 µM | 0.484 µM | 0.0161 µM | > 10 µM | > 0.3 µM | > 1 µM | > 2 µM | > 0.001 µM | > 1 µM | 0.00812 µM | > 3 µM | > 1 µM | 8.33 µM | 4.43 µM | > 10 µM | 0.386 µM | 0.511 µM | > 1 µM | > 10 µM | 7.78 µM | 9.41 µM | > 1 µM | > 10 µM | > 1 µM | > 10 µM | 4.11 µM | > 10 µM | > 10 µM | > 10 µM | 0.0174 µM | 4.53 µM | > 10 µM | > 20 µM
